PubChem BioAssay (NCI)
Where “and” joins values, the source holds several entries; their conditions need not be identical. Identical values can stand only once.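 A five-concentration, 48-hour dose response in 96-well plates underlies each endpoint, interpolated linearly between surrounding concentrations. GI50: concentration for 50% inhibition of growth. TGI is the concentration that stops growth completely.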

Tests used:
Assay in all cases: NCI tumour cell line growth inhibition, 48 h
[1] = test system: BT-549 breast
[2] = test system: DU-145 prostate
[3] = test system: HS 578T breast
[4] = test system: MCF7 breast
[5] = test system: NCI/ADR-RES ovarian

Structure (SMILES)	GI50 [1] [µM]	TGI [1] [µM]	GI50 [2]	TGI [2]	GI50 [3] [µM]	TGI [3] [µM]	GI50 [4]	TGI [4]	GI50 [5]	TGI [5]
Cc1cccc2c(C3=C(c4cn(C)c5ccccc45)C(=O)NC3=O)cn(C)c12	12.7	> 25	> 25 µM	> 25 µM	2.83	17.3	9030 nM	> 25 µM	> 19.6 µM	> 25 µM
Cc1cc(F)c(C(=O)Nc2cccc(-c3nncn3C(C)C)n2)cc1-n1cnc(C2CC2)c1	11.7	54.8	–	> 100 µM	26.6	> 100	9480 nM	55.2 µM	17.7 µM	93.2 µM
C=CC(=O)N[C@@H]1CN(c2nc(Nc3cn(C)nc3OC)c3ncn(C)c3n2)C[C@H]1F	28.6	> 100	4.02 µM	> 91.7 µM	34	> 100	17700 nM	> 100 µM	> 100 µM	> 100 µM
O=C(O)C1C2C=CC(O2)C1C(=O)NCc1cccnc1 (configuration not stated)	–	> 100	–	> 100 µM	–	> 100	–	> 100 µM	–	> 100 µM
CCOC(=O)/C(=C/CC/C(C)=C/CC/C(C)=C/CCc1ccoc1)CC(=O)N1CCCCC1	4.03	17.2	7.76 µM	43.4 µM	5.07	35.2	2110 nM	5.92 µM	3.88 µM	23.7 µM
C[C@@H](C1CC[C@H]2[C@@H]3[C@@H]4O[C@@H]4[C@@]4(O)CC=CC(=O)[C@]4(C)[C@H]3C[C@H](O)[C@]12C)[C@H]1C[C@]2(C)O[C@]2(C)C(=O)O1 (some centres not stated)	–	–	–	> 100 µM	–	> 100	–	> 100 µM	–	> 100 µM
C[C@@H](O)[C@@H](C)Oc1nc(Nc2ccc(S(=N)(=O)C3CC3)cc2)ncc1C(F)(F)F (some centres not stated)	0.0274	0.182	0.0258 µM	> 61.8 µM	0.0313	7.96	16.9 nM	29.7 µM	0.132 µM	28.5 µM
Cc1cc2c(cc1Cl)SC(N(c1ccccc1Cl)S(=O)(=O)c1ccc(Br)s1)=NS2(=O)=O	–	–	14.5 µM	33 µM	18	41.4	8880 nM	28.8 µM	17.2 µM	41.3 µM
N#Cc1ncc(C(Cl)Cl)nc1Cl	–	4.8	–	> 10 µM	–	> 10	–	3.86 µM	–	5.38 µM
C/C=C1/CN2CCC34C(=C(C(=O)OC)C1CC23)Nc1ccc(O)cc14 (configuration not stated)	–	> 100	–	> 100 µM	–	> 100	–	> 100 µM	–	> 100 µM
O=C(Nc1ccc(OS(=O)(=O)c2ccc(F)cc2)cc1)C12CC3CC(CC(C3)C1)C2	4.37	75.8	13.9 µM	99.2 µM	5.9	> 53.2	641 nM	> 100 µM	3.15 µM	> 100 µM
Cc1ccc2c(c1)[n+](=O)c(C(=O)c1cccs1)c(C(F)(F)F)n2[O-]	0.603	1.97	0.913 µM and 0.573 µM	2.08 µM and 2.42 µM	–	–	875 nM and 456 nM	3.79 µM and 21.5 µM	1.14 µM and 0.524 µM	10.3 µM and 10.1 µM
COc1ccc(C(=O)/C=C/c2sc(Cl)nc2Cl)cc1	0.332	1.7	1.9 µM	3.55 µM	3.29	18.6	1750 nM	4 µM	2.55 µM	10.2 µM
O=C(COc1ccc(/C=C2\Oc3ccc4ccccc4c3C2=O)cc1)c1ccc([N+](=O)[O-])cc1	11.1	26.4	10.9 µM	23.1 µM	18.5	57	1710 nM	20.3 µM	21.8 µM	82.1 µM
Nc1nc(N)c2c(n1)NC(c1sc(Cl)nc1Cl)CC(c1ccccc1)=N2 (configuration not stated)	3.93	16.1	11.2 µM	24.2 µM	2.44	11.1	3560 nM	20.4 µM	3.13 µM	12.4 µM
Nc1nc(=O)n(C2CC(O)C(CO)O2)cc1F (configuration not stated)	–	> 100	–	> 100 µM	55.2	> 100	2.35 nM	> 100 µM	0.107 µM	> 100 µM
CCOC(=O)C1(CC(=O)O)CCCC1=O (configuration not stated)	–	> 100	–	> 100 µM	–	> 100	–	> 100 µM	–	> 100 µM
CN(C)c1ccc(C(=S)c2ccc(N(C)C)cc2)cc1	6.76	90.1	20.3 µM	> 100 µM	3.84	> 100	3920 nM	> 100 µM	2.4 µM	7.66 µM
